Experiments:
HeLa cell xenograft [1] = assay: In vivo imaging study in HeLa cell xenograft mice
Description: Animal experiments were conducted in accordance with institutional guidelines and were approved by the Kyoto University Animal Care Committee. […] HeLa cells (2 × 10^6 cells in 100 μL of PBS) were subcutaneously inoculated into the right hind legs of mice. Fourteen days after implantation, mice were used for the imaging study.
Clairvivo® OPT measurement and display software ver. 2.6.0.0. (SHIMADZU Co.) was used for imaging analysis.
Exposure time was 5s for the scan at 3 h, and 3s for the other scans. Clairvivo® OPT measurement and display software ver. 2.6.0.0. (SHIMADZU Co., Kyoto, Japan) was used for imaging analysis.

[2] = Photophysical properties (fluorescence spectroscopy, quantum yield); format: physicochemical
Description: IC7-1 derivatives were dissolved in chloroform or 5% FBS to give a concentration of 1 μmol/L for fluorescence spectroscopy analysis. Excitation spectra were measured following the emission at 850 nm, and emission spectra were measured following excitation at 823 nm. Quantum yields were determined using a Fluorolog-3 spectrofluorometer equipped with an integrating sphere.

HeLa cell xenograft [3] = assay: In vivo blocking study with uncoupler CCCP; set-up: species or system mice; details: intratumoral CCCP 0.25 mg/kg, imaged 1 and 3 h
Description: (§1) Animal experiments were conducted in accordance with institutional guidelines and were approved by the Kyoto University Animal Care Committee. Female nude mice (BALB/c nu/nu 4-weeks old), supplied by Japan SLC, Inc. (Shizuoka, Japan), were housed under a 12 h light/12 h dark cycle and were given free access to food (D10001) and water. HeLa cells (2 × 10^6 cells in 100 μL of PBS) were subcutaneously inoculated into the right hind legs of mice. Fourteen days after implantation, mice were used for the imaging study.
In the in vivo blocking study using an uncoupler, IC7-1-Bu (10 nmol, 100 μL) was administered to tumor-bearing mice via the tail vein immediately after intratumoral injection of CCCP (2.5 mL/kg, 0.25 mg/kg). Mice were imaged 1 and 3 h after administration of the imaging agent using the same method as described above.

[4] = target: T1, albumin-binding site I (warfarin-binding site) (Bos taurus, UniProt P02769); assay: Protein-binding assay with competitive inhibitors in 5% FBS; format: in vitro ADME, bovine
T1 construct: incubated for 30 min in PBS (pH 7.4) containing 5% DMSO and 5% FBS; from tissue; host or cells: fetal bovine serum (5% in PBS)
T1 sequence (P02769 25-607): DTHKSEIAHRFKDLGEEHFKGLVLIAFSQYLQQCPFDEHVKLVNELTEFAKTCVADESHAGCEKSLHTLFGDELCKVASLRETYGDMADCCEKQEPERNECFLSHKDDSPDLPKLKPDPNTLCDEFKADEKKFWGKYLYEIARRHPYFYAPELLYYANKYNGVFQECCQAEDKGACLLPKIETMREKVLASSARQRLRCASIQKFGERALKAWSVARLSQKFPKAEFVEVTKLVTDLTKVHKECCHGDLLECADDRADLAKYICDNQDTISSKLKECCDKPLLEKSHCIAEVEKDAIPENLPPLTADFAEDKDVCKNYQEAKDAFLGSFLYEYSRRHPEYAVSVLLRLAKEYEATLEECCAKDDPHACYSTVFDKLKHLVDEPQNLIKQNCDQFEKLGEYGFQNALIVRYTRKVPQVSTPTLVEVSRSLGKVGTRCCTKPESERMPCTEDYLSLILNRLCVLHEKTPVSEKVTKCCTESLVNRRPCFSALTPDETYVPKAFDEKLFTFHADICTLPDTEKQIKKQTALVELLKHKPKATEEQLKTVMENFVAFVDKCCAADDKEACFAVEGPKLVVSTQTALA
Description: A protein-binding assay was conducted as reported previously. Briefly, warfarin, ibuprofen, digoxin, and quinidine were used as competitive inhibitors of albumin-binding sites I, II, III, and […], respectively. The inhibitors (0 and 189 μmol/L) were incubated for 30 min in PBS (pH 7.4) containing 5% DMSO and 5% FBS at room temperature. Immediately after the addition of the IC7-1 derivative (1 μmol/L final concentration), the fluorescence intensity was measured following the excitation at 823 nm and the emission from 840 to 900 nm. The normalized intensity (%) was calculated as a percentage of fluorescence intensity obtained from an inhibitor untreated sample.

HeLa cells [5] = assay: Cellular localization study (fluorescence microscopy with NAO mitochondria marker); format: cell-based, human; details: 1 μmol/L, 60 min, NAO 100 nmol/L
Description: HeLa cells (3 × 10^5 cells) were cultured in a poly-L-lysine coated glass bottom dish for 24 h at 37°C before use. Cells were washed twice with phosphate-buffered saline (PBS) and then incubated with the IC7-1 derivative dissolved in dimethyl sulfoxide (DMSO) (1 μmol/L final concentration) in DMEM supplemented with 5% FBS and 1% penicillin and streptomycin for 60 min. To determine the dye localization, mitochondria were labeled with NAO (100 nmol/L final concentration) for 20 min before completion of the incubation with IC7-1 derivative. Next, the cells were washed twice each with DMEM and PBS. Cells were viewed with a fluorescence microscope under a 100× oil-immersion objective lens. MetaMorph® software (Molecular Devices, LLC, Sunnyvale, CA) was used for imaging analysis.

BSA = BSA (Bos taurus, UniProt P02769); assay: Association constants of IC7-1 derivatives to albumin (fluorimetric titration); format: binding, bovine; details: dye 1 µM, BSA 0-1.0 µM, 30 min; read-out: Ka, association constant of dye-albumin complex (converted)
BSA, sequence (P02769 25-607): as above
Description: Binding studies of IC7-1 derivatives to albumin were conducted as reported previously (Beckford G et al. The solvatochromic effects of side chain substitution on the binding interaction of novel tricarbocyanine dyes with human serum albumin. Talanta 2012;92: 45-52). Briefly, IC7-1 derivatives (1 µM final concentration) were incubated with BSA (0, 0.4, 0.6, 0.8, and 1.0 µM) for 30 min to equilibrate. The fluorescence intensity was measured following the excitation at 823 nm and the emission from 840 to 900 nm. The interaction between dye D and albumin A can be expressed by Eq. 1:
The association constant for the dye-albumin complex formation can be expressed by Eq. 2:
Then, the association constant Ka of the dye-albumin complex was calculated from the data for the fluorimetric titration of the dye with albumin using Eq. 3:
1/ΔF = 1/k[D] + (1/(k[D]Ka))·(1/[A]) (3)
where k is a constant depending on the instrumentation and quantum efficiency of the process.
Therefore, a plot of the reciprocal of ΔF versus the reciprocal of albumin concentration gives a straight line. The association constant was calculated by dividing the intercept by the slope of the line.

HeLa cell xenograft [6] = assay: In vivo blocking study with protein-binding inhibitor warfarin; set-up: species or system mice
Description: as §1
An in vivo blocking study using a protein-binding inhibitor was conducted as reported previously. Briefly, IC7-1-Bu (10 nmol, 100 μL) and warfarin (5.5 μmol, 100 μL) were simultaneously administered to mice via the tail vein, and the mice were imaged using the same method as described above.

HeLa cells [7] = assay: Cellular uptake study with uncoupler CCCP; format: cell-based, human; details: dye 1 μmol/L, 60 min, CCCP 0-25 μmol/L
Description: A cellular uptake study was conducted as reported previously. Briefly, the buffer solution (pH 7.4) for the cellular uptake study was composed of NaCl ([…]), KCl (5.4 mmol/L), CaCl2 (1.2 mmol/L), MgSO4 (0.8 mmol/L), NaH2PO4 (0.8 mmol/L), dextrose (5.6 mmol/L), and 4-(2-hydroxyethyl)-1-piperazineethanesulfonic acid) (5 mmol/L). HeLa cells (1 × 10^6 cells/mL buffer solution) were incubated with carbonyl […] m-chlorophenylhydrazone (CCCP; 0, 0.1, 0.25, 0.5, 0.75, 1, 2.5, 5, 10, and 25 μmol/L) for 5 min at 37°C in 1.5 mL microtubes, followed by the addition of the IC7-1 derivative (1 μmol/L final concentration). After a 60-min incubation with the IC7-1 derivative, the cells were washed twice and resuspended with buffer solution. The fluorescence intensity was measured following the excitation at 823 nm and the emission from 840 to 900 nm, and the normalized intensity (%) was calculated as a percentage of fluorescence intensity obtained with CCCP untreated (0 μmol/L) cells.
The buffer solution (pH 7.4) for the cellular uptake study was composed of NaCl (145 mM), KCl (5.4 mM), CaCl2 (1.2 mM), MgSO4 (0.8 mM), NaH2PO4 (0.8 mM), dextrose (5.6 mM), and HEPES (5 mM). The HeLa cells (1 x 10^6 cells / ml buffer solution) were incubated with an uncoupler (CCCP; 0, 0.1, 0.25, 0.5, 0.75, 1, 2.5, 5, 10, and 25 µM) for 5 min at 37 °C in 1.5 mL microtubes, followed by the addition of IR-780 or IC7-1-Bu (1 µM final concentration) After a 60 min incubation with the dyes, the cells were washed twice and resuspended with buffer solution. Fluorescence intensity was measured following the excitation at 763 nm and the emission from 780 to 880 nm for IR-780, and the excitation at 823 nm and the emission from 840 to 900 nm for IC7-1-Bu. The normalized intensity (%) was calculated as a percentage of fluorescence intensity obtained with CCCP untreated (0 µM) cells.

[8] = set-up: method as in PMID 21469142; details: cited from earlier work

CCCCN1/C(=C/C=C2\CCCC(/C=C/C3=[N+](CCCC)c4ccc5ccccc5c4C3(C)C)=C2Cl)C(C)(C)c2c1ccc1ccccc21 [IC7-1-Bu, 3-Butyl-2-(2-{3-[2-(3-butyl-1,1-dimethyl-1,3-dihydro-benz[e]indol-2-ylidene)-ethylidene]-2-chloro-cyclohex-1-enyl}-vinyl)-1,1-dimethyl-1H-benz[e]indolium]
Retention of tumor fluorescence after i.v. administration (HeLa cell xenograft [1]; 10 nmol i.v.): 72 h | Tumor fluorescence intensity group from ROI analysis (HeLa cell xenograft [1]; 10 nmol i.v.): high intensity group | Fluorescence intensity at the tumor region (HeLa cell xenograft [1]; 10 nmol i.v., 24, 48 and 72 h): strong fluorescence intensity at the tumor region up to 72 h | Tumor depiction in fluorescence images (HeLa cell xenograft [1]; 10 nmol i.v., 24, 48 and 72 h): Tumors were clearly depicted | Φ, quantum yield ([2]; 5% FBS): 0.04 | ε, extinction coefficient ([2]; 5% FBS): 130000 mol/L/cm | emmax, maximum emission wavelength ([2]; 5% FBS, 1 μmol/L): 849 nm | exmax, maximum excitation wavelength ([2]; 5% FBS, 1 μmol/L): 823 nm | Φ, quantum yield ([2]; CHCl3): 0.06 | ε, extinction coefficient ([2]; CHCl3): 330000 mol/L/cm | emmax, maximum emission wavelength ([2]; CHCl3, 1 μmol/L): 845 nm | exmax, maximum excitation wavelength ([2]; CHCl3, 1 μmol/L): 823 nm | Fluorescence intensity at the tumor after CCCP pretreatment (HeLa cell xenograft [3]): significantly decreased by CCCP pretreatment | Absorbance peak and fluorescence in 5% FBS versus 0% FBS solution ([4]; 5% FBS vs 0% FBS): significantly higher in 5% FBS solution than in 0% FBS solution | Normalized fluorescence intensity with warfarin (albumin site I inhibitor) ([4]; 5% FBS, inhibitor 189 μmol/L, dye 1 μmol/L): specifically bound to albumin | Absorbance peak ([4]; FBS solution): 836 nm | Subcellular localization of NIR fluorescence (HeLa cells [5]): colocalized fluorescence with NAO | Kd (BSA): 476 nM | Fluorescence intensity after co-administration of warfarin (HeLa cell xenograft [6]; IC7-1-Bu 10 nmol + warfarin 5.5 μmol i.v., 24-72 h): diminished throughout the body | Tumor to neck fluorescence ratio (HeLa cell xenograft [6]; warfarin (+), after 1 day): 2.36 ± 0.09 | Tumor to neck fluorescence ratio (HeLa cell xenograft [6]; warfarin (+), after 2 day): 2.49 ± 0.10 | Tumor to neck fluorescence ratio (HeLa cell xenograft [6]; warfarin (+), after 3 day): 2.46 ± 0.09 | Tumor to neck fluorescence ratio (HeLa cell xenograft [6]; warfarin (−), after 1 day): 1.94 ± 0.11 | Tumor to neck fluorescence ratio (HeLa cell xenograft [6]; warfarin (−), after 2 day): 2.02 ± 0.15 | Tumor to neck fluorescence ratio (HeLa cell xenograft [6]; warfarin (−), after 3 day): 2.07 ± 0.48 | Normalized cellular fluorescence intensity under CCCP treatment (HeLa cells [7]): reduced cellular fluorescence from treatment with a low CCCP concentration

CC1(C)C(/C=C/C=C/C=C/C=C2\N(CCCCS(=O)(=O)O)c3ccc4ccccc4c3C2(C)C)=[N+](CCCCS(=O)(=O)[O-])c2ccc3ccccc3c21 [ICG, indocyanine green]
Clearance and tumor accumulation after i.v. administration [8]: rapid clearance through the liver into feces with low accumulation in tumors
